# Reference: patent US20100056519A1, “COMPOSITION AND METHOD FOR REDUCING PLATELET ACTIVATION AND FOR THE TREATMENT OF THROMBOTIC EVENTS” (priority 2008, published 2010)
# Assays:
# Type in all cases: cell-based, human
# GPIIb antigen (CD41) = experiment: TRAP-stimulated whole blood flow cytometry, GPIIb antigen; conditions: Mean ± SD
# Protocol: (§1) The methodology employed was conventional aggregation induced by 5 μM ADP, 1 μg/ml collagen, 10 μM TRAP, whole blood aggregation with 1 μg/ml collagen, Ultegra, and PFA-100 Analyzers, expression of 14 intact, and TRAP-stimulated major receptors by whole blood flow cytometry were utilized to assess platelet activity after preincubation with escalating concentrations of E5555 (20 ng/ml, 50 ng/ml, and 100 ng/ml). The experiments were performed in healthy volunteers, CAD patients treated with ASA, and CAD patients treated with ASA and clopidogrel combination (n=10, for each group).
# (§2) An Informed Consent was obtained from all volunteers. Drug users were excluded from data analysis. The study was approved by Quorum Institutional Review Board. All subjects underwent blood sampling after at least 30 minutes of rest and two or more hours of fasting. Blood (28 ml) was drawn between 8 and 10 a.m. in order to avoid any diurnal influence and sampled from an antecubital vein using a 21-gauge butterfly needle containing 3.2% sodium citrate (1:9 volume) after having discarded the first 1.5 ml of free running blood. Four Vacutainer tubes (7.0 ml) were collected for a total of 28 ml of whole blood-citrate mixture from each study participant. Chronologically, blood samples were delivered to the core laboratory facility within 45 minutes after drawing. Then all tubes of blood-citrate mixture were pooled. One portion of pooled blood (5 ml) was kept as an internal control and pretreated with the vehicle. The remaining blood (23 ml) was used for the in vitro exposure to E5555 at concentrations of 20 ng/ml, 50 ng/ml, and 100 ng/ml. […] The platelet aggregation studies, Rapid Analyzers measures, and flow cytometry preparations were initiated within no more than 110 minutes following the blood draw, incubation with the drug, and preparation of the samples.
# (§3) Formation of platelet-leukocyte aggregates was assessed by dual labeling with pan-platelet marker (CD151), and then with CD14, the macrophage receptor for endotoxin lipopolysaccharides (PharMingen, and Coulter, San Diego, Calif., USA). The tubes were then covered with aluminum foil and incubated at 37° C. for 40 minutes with gentle rotation. After incubation, samples were immediately analyzed on a Becton Dickinson FACScan flow cytometer. The instrument was set up to measure forward light scatter, and FITC fluorescence. All parameters were collected using four-decade logarithmic amplification. The data was retrieved in list mode files and then analyzed. P selectin was expressed as percent positive cells. Other antigens were expressed as log mean fluorescence intensity.
# (§4) For flow cytometry (TRAP-stimulated) all of the above flow cytometry experiments were identically repeated utilizing prestimulation with 10 μmol/L TRAP for 5 minutes at 37° C. To determine statistics, a Paired Sign Test was used to define significance of differences between vehicle and E5555-treated groups. The Mann-Whitney U test was used to analyze nonparametric data. Normally distributed data were expressed as mean±standard error (m±SE), and skewed data as median (range). All P-values were two sided. All analysis was performed using the SPSS v9.0 program (SPSS Inc., Chicago, Ill.).
# GPIb (CD42b) = experiment: Unstimulated whole blood flow cytometry, GPIb; conditions: for GPIb (CD42b), Mean Fluorescence Intensity: unstimulated, Mean ± SD
# Protocol: as §1, §2, §3
# [1] = tested on: Thrombospondin-Receptor (CD36); experiment: TRAP-stimulated whole blood flow cytometry, thrombospondin receptor; conditions: Mean ± SD
# Protocol: as §1, §2, §3, §4
# PAC-1 (GPIIb/IIIa) = experiment: TRAP-stimulated whole blood flow cytometry, PAC-1; conditions: Mean ± SD
# Protocol: as §1, §2, §3, §4
# platelets = experiment: Whole blood (impedance) aggregation with 1 μg/ml collagen; conditions: Mean ± SD
# Protocol: as §1, §2
# Whole blood aggregation was determined using a Chronolog device 592A. The whole blood-citrate mixture was diluted 1:1 with 0.5 ml phosphate buffered saline and gently swirled. The sample then was allowed to warm to 37° C. for 5 minutes then transferred to the assay well. The electrode was then placed in the cuvette and the sample was stimulated with 1 μg/ml collagen. The change in electrical impedance was digitally recorded. Each whole blood sample was analyzed utilizing 2 different clinical devices: • (1) a Rapid Platelet-Function Assay (Ultegra®) (Accumetrics, Inc., San Diego, Calif.), which is a rapid platelet-function assay aspirin cartridge test with TRAP used as agonist. Polystyrene beads coated with fibrinogen are placed in a cartridge along with the peptide that activates thrombin receptor. Anticoagulated whole blood was added to the cartridge, and agglutination between platelets and coated beads was recorded. The data mirrors turbidimetric platelet aggregation and presumably reflects platelet glycoprotein IIb/IIIa blockade. Ultegra RPFA-TRAP Assay results were reported as Platelet Activation Units (PAU); and • (2) Platelet-Function Analyzer PFA-100 ™ (Dade Behring, Deerfield Ill.), which is a high shear-inducing analyzer that simulates primary hemostasis after injury to a small vessel under flow conditions. The device provides a constant negative pressure that aspirates whole blood, which comes into contact with the collagen, coated membrane and then passes through the aperture. The time required to obtain occlusion of the aperture is digitally recorded. The time to aperture occlusion (the closure time) is recorded in seconds and is inversely related to the degree of shear-induced platelet activation. We used ADP/Collagen cartridges in the index study. Both PFA-100 and Ultegra assays were performed in duplicate. An electronic quality control test was performed on each instrument daily prior to performing any patient samples.
# [2] = E5555 20 ng/ml, Patients (ASA + C)
# [3] = E5555 50 ng/ml, Patients (ASA + C)
# [4] = E5555 100 ng/ml, Patients (ASA + C)
# [5] = E5555 100 ng/ml, Patients (ASA)
smiles,measurement,setting,value
"Br.CCOc1cc2c(c(F)c1OCC)C(=N)N(CC(=O)c1cc(N3CCOCC3)c(OC)c(C(C)(C)C)c1)C2 [E5555, 1-(3-tert-butyl-4-methoxy-5-morpholinophenyl)-2-(5,6-diethoxy-7-fluoro-1-imino-1,3-dihydro-2H-isoindol-2-yl)ethanone hydrobromide]","GPIIb antigen (CD41), Mean Fluorescence Intensity",GPIIb antigen (CD41); [2],328 ± 41 MFI
same,"GPIIb antigen (CD41), Mean Fluorescence Intensity","GPIIb antigen (CD41); E5555 20 ng/ml, Patients (ASA)",471 ± 38 MFI
same,"GPIIb antigen (CD41), Mean Fluorescence Intensity","GPIIb antigen (CD41); E5555 20 ng/ml, Volunteers",504 ± 18 MFI
same,"GPIIb antigen (CD41), Mean Fluorescence Intensity",GPIIb antigen (CD41); [3],209 ± 30 MFI
same,"GPIIb antigen (CD41), Mean Fluorescence Intensity","GPIIb antigen (CD41); E5555 50 ng/ml, Patients (ASA)",376 ± 35 MFI
same,"GPIIb antigen (CD41), Mean Fluorescence Intensity","GPIIb antigen (CD41); E5555 50 ng/ml, Volunteers",390 ± 31 MFI
same,"GPIIb antigen (CD41), Mean Fluorescence Intensity",GPIIb antigen (CD41); [4],176 ± 19 MFI
same,"GPIIb antigen (CD41), Mean Fluorescence Intensity",GPIIb antigen (CD41); [5],304 ± 40 MFI
same,"GPIIb antigen (CD41), Mean Fluorescence Intensity","GPIIb antigen (CD41); E5555 100 ng/ml, Volunteers",364 ± 37 MFI
same,"GPIb expression, effect in words","GPIb (CD42b); overall summary, stimulation not stated",significant reduction
same,"GPIb (CD42b), Mean Fluorescence Intensity",GPIb (CD42b); [2],103 ± 7 MFI
same,"GPIb (CD42b), Mean Fluorescence Intensity","GPIb (CD42b); E5555 20 ng/ml, Patients (ASA)",106 ± 5 MFI
same,"GPIb (CD42b), Mean Fluorescence Intensity","GPIb (CD42b); E5555 20 ng/ml, Volunteers",162 ± 19 MFI
same,"GPIb (CD42b), Mean Fluorescence Intensity",GPIb (CD42b); [3],94 ± 12 MFI
same,"GPIb (CD42b), Mean Fluorescence Intensity","GPIb (CD42b); E5555 50 ng/ml, Patients (ASA)",109 ± 7 MFI
same,"GPIb (CD42b), Mean Fluorescence Intensity","GPIb (CD42b); E5555 50 ng/ml, Volunteers",145 ± 20 MFI
same,"GPIb (CD42b), Mean Fluorescence Intensity",GPIb (CD42b); [4],100 ± 15 MFI
same,"GPIb (CD42b), Mean Fluorescence Intensity",GPIb (CD42b); [5],111 ± 10 MFI
same,"GPIb (CD42b), Mean Fluorescence Intensity","GPIb (CD42b); E5555 100 ng/ml, Volunteers",157 ± 16 MFI
same,"Thrombospondin-Receptor (CD36), Mean Fluorescence Intensity",[1]; [2],6 ± 1 MFI
same,"Thrombospondin-Receptor (CD36), Mean Fluorescence Intensity","[1]; E5555 20 ng/ml, Patients (ASA)",6 ± 2 MFI
same,"Thrombospondin-Receptor (CD36), Mean Fluorescence Intensity","[1]; E5555 20 ng/ml, Volunteers",9 ± 1 MFI
same,"Thrombospondin-Receptor (CD36), Mean Fluorescence Intensity",[1]; [3],5 ± 1 MFI
same,"Thrombospondin-Receptor (CD36), Mean Fluorescence Intensity","[1]; E5555 50 ng/ml, Patients (ASA)",7 ± 1 MFI
same,"Thrombospondin-Receptor (CD36), Mean Fluorescence Intensity","[1]; E5555 50 ng/ml, Volunteers",9 ± 2 MFI
same,"Thrombospondin-Receptor (CD36), Mean Fluorescence Intensity",[1]; [4],6 ± 2 MFI
same,"Thrombospondin-Receptor (CD36), Mean Fluorescence Intensity",[1]; [5],7 ± 2 MFI
same,"Thrombospondin-Receptor (CD36), Mean Fluorescence Intensity","[1]; E5555 100 ng/ml, Volunteers",9 ± 1 MFI
same,"PAC-1 (GPIIb/IIIa), Mean Fluorescence Intensity",PAC-1 (GPIIb/IIIa); [2],41 ± 5 MFI
same,"PAC-1 (GPIIb/IIIa), Mean Fluorescence Intensity","PAC-1 (GPIIb/IIIa); E5555 20 ng/ml, Patients (ASA)",52 ± 6 MFI
same,"PAC-1 (GPIIb/IIIa), Mean Fluorescence Intensity","PAC-1 (GPIIb/IIIa); E5555 20 ng/ml, Volunteers",68 ± 8 MFI
same,"PAC-1 (GPIIb/IIIa), Mean Fluorescence Intensity",PAC-1 (GPIIb/IIIa); [3],9 ± 1 MFI
same,"PAC-1 (GPIIb/IIIa), Mean Fluorescence Intensity","PAC-1 (GPIIb/IIIa); E5555 50 ng/ml, Patients (ASA)",9 ± 3 MFI
same,"PAC-1 (GPIIb/IIIa), Mean Fluorescence Intensity","PAC-1 (GPIIb/IIIa); E5555 50 ng/ml, Volunteers",17 ± 9 MFI
same,"PAC-1 (GPIIb/IIIa), Mean Fluorescence Intensity",PAC-1 (GPIIb/IIIa); [4],5 ± 2 MFI
same,"PAC-1 (GPIIb/IIIa), Mean Fluorescence Intensity",PAC-1 (GPIIb/IIIa); [5],4 ± 1 MFI
same,"PAC-1 (GPIIb/IIIa), Mean Fluorescence Intensity","PAC-1 (GPIIb/IIIa); E5555 100 ng/ml, Volunteers",7 ± 3 MFI
same,"Platelet Aggregation, Whole Blood Collagen 1 μg/mL","platelets; E5555 20 ng/ml, CAD patients treated with ASA + clopidogrel",13 ± 5 ohms
same,"Platelet Aggregation, Whole Blood Collagen 1 μg/mL","platelets; E5555 20 ng/ml, CAD patients treated with ASA",11 ± 4 ohms
same,"Platelet Aggregation, Whole Blood Collagen 1 μg/mL","platelets; E5555 20 ng/ml, healthy volunteers",22 ± 5 ohms
same,"Platelet Aggregation, Whole Blood Collagen 1 μg/mL","platelets; E5555 50 ng/ml, CAD patients treated with ASA + clopidogrel",12 ± 7 ohms
same,"Platelet Aggregation, Whole Blood Collagen 1 μg/mL","platelets; E5555 50 ng/ml, CAD patients treated with ASA",14 ± 6 ohms
same,"Platelet Aggregation, Whole Blood Collagen 1 μg/mL","platelets; E5555 50 ng/ml, healthy volunteers",25 ± 7 ohms
same,"Platelet Aggregation, Whole Blood Collagen 1 μg/mL","platelets; E5555 100 ng/ml, CAD patients treated with ASA + clopidogrel",14 ± 4 ohms
same,"Platelet Aggregation, Whole Blood Collagen 1 μg/mL","platelets; E5555 100 ng/ml, CAD patients treated with ASA",12 ± 5 ohms
same,"Platelet Aggregation, Whole Blood Collagen 1 μg/mL","platelets; E5555 100 ng/ml, healthy volunteers",22 ± 6 ohms
